Data published in patent publication US20260108548A1, “COMPOSITION OF PAEONIFLORIN AND ISOLIQUIRITIGENIN AND USE THEREOF” (HENAN UNIVERSITY OF CHINESE MEDICINE, priority 2023, published 2026).

Tests used:
Type in all cases: in vivo, SD rats
[1] = tested on: rat pulmonary fibrosis model; assay: Lung function (FinePointe PFT) in bleomycin pulmonary fibrosis rats, Example 1; details: for Cydn / FEV0.3: bleomycin 5 mg/kg intratracheal, intragastric once daily day 29-42, doses per Table 4, X ± SE, N = 10
Experimental: (§1) A rat pulmonary fibrosis model was prepared using a one-time intratracheal instillation of bleomycin. After the rat was anesthetized by intraperitoneal injection of 10% chloral hydrate (3.0 ml/kg), it was tilted back and fixed on a rat board and irradiated with light source on the throat, and the glottis was seen to open and close in an orderly manner with breathing when the tongue was gently lifted to open the mouth. The indwelling needle was gently pushed into the trachea as the glottis opened and closed, the needle core was pulled out, and whether tracheal intubation was successful was verified by swing of a cotton thread. Bleomycin was injected into the trachea at a dose of 5 mg/kg, and 0.5 ml of air was further injected to ensure the depth of the drug. The rat was held upright and rocked from side to side to ensure even distribution of the drug in the lung. The anesthetized rat was placed on an electric blanket to maintain body temperature. After waking up, it is placed into a corresponding cage. The rats were fed normally until the 28th day, drinking pure water and eating sterile feed freely every day.
(§2) The modeling day was set as day 0.
Before collecting the sample, the rat was anesthetized and submitted to a tracheotomy, and the tracheal tube was inserted into the rat's trachea and fixed. The FinePointe™ series PFT measurement system was used to detect the rat's forced vital capacity (FVC), forced expiratory volume in 0.3 s (FEV 0.3), vital capacity (VC), and dynamic lung compliance (Cydn).

[2] = tested on: rat pulmonary fibrosis model; assay: R value comprehensive evaluation of 8 indicators, Example 1; details: 8 indicators, R=1 best effect, R=2 no corrective effect, X ± SE, N = 8
Experimental: The data were standardized and the Rcomprehensive value data set was established (Rcomprehensive=R−(−2)). […] When Rcomprehensive<1, it means that the comprehensive corrective degree of the drug on such indicators exceeds the normal value.
A total of 8 indicators, i.e., lung function (FVC, FEV0.3, IC, Cydn), lung tissue pathology (H&E staining, Masson staining), and collagen deposition (CoL I, α-SMA) were calculated using the R value comprehensive evaluation method.

CoL I = CoL I expression in lung tissue by immunohistochemistry, Example 1; details: for COL I (IOD): lung tissue IHC, doses per Table 4, 14 days, X ± SE, N = 6; for expression of CoL I protein, compared with the model group: P<0.01, P<0.05
Experimental: as §1, §2
(§3) The detection was performed by Immunohistochemistry.
(§4) The lung tissue was sliced into 4 μm sections and baked at 60° C. for 3 hours. The paraffin sections were dewaxed in xylene, dehydrated in gradient alcohols, and washed in distilled water for 2 minutes in order. The washed sections were then boiled in 0.01 M citrate buffer in a microwave oven for antigen retrieval. A 3% […] was added dropwise to the sections to block endogenous peroxidase. After the sections were blocked with a 5% BSA blocking solution and incubated at 37° C. for 30 minutes, the primary antibody was added dropwise thereto (the dilution ratio was 1:500 for CoL I, and 1:2000 for α-SMA), and the sections were incubated overnight in a humid box at 4° C. HRP-labeled goat anti-rabbit secondary antibody was added dropwise, and the sections were incubated at 37° C. for 20 minutes; and then SABC was added dropwise and the sections were incubated at 37° C. for 30 minutes. Thereafter, a freshly prepared DAB chromogenic solution was added dropwise, and the sections were observed under a microscope, and the color development was stopped once brownish yellow appeared. The sections were counterstained with hematoxylin for 30 seconds, differentiated with a 1% hydrochloric acid in alcohol for 3 seconds; and dehydrated in gradient alcohols in sequence. The sections were dried in a fume hood, sealed with neutral gum, and dried in the air. Images were collected with Olympus-DP70 microscope (Image-Pro Plus 6.0, IPP 6.0), 6 fields were randomly selected for each section, and the image integrated optical density (IOD) was calculated.

α-SMA = α-SMA expression in lung tissue by immunohistochemistry, Example 1; details: for α-SMA (IOD): lung tissue IHC, doses per Table 4, 14 days, X ± SE, N = 6; for expression of α-SMA protein, compared with the model group: P<0.05
Experimental: as §1, §2, §3, §4

[3] = tested on: rat pulmonary fibrosis model; assay: Lung tissue pathology, H&E and Masson staining, Szapiel scoring, Example 1; details: for Alveolitis (score): H&E staining; for Alveolitis (score) / Pulmonary fibrosis (score): score 0-3, doses per Table 4, 14 days, X ± SE, N = 6; for Pulmonary fibrosis (score): Masson staining; for alveolitis scores, compared with the model group: P<0.01, P<0.05
Experimental: as §1, §2
The left lung was fixed with 10% formaldehyde for 72 hours, embedded in paraffin, sectioned at 4 μm for HE and Masson staining.
Pathological scoring of alveolitis and pulmonary fibrosis was performed according to the Szapiel method, the degree of alveolitis was determined by HE staining, and the degree of pulmonary fibrosis was determined by Masson staining.
The pathological changes in lung tissue were observed using an optical microscope. 6 sections were selected from each group and 6 fields were selected from each section.

[4] = tested on: rat pulmonary fibrosis model; assay: Lung function in bleomycin pulmonary fibrosis rats, Example 2; details: for FEV0.3, compared with the model group: P<0.01, P<0.05; for Cydn / FEV0.3 / FVC: isoliquiritigenin, paeoniflorin, combination each 0.55 mg/kg/d intragastric, day 29-42, X ± SE, N = 10
Experimental: In order to evaluate the difference in the efficacy of isoliquiritigenin and paeoniflorin alone and in combination, a study was conducted by splitting the Formula 8 into isoliquiritigenin, paeoniflorin and combination thereof, each adopting the dose of 0.55 mg/kg/d.
The experimental materials and research methods were the same as those in Example 1.
A total of 72 rats were randomly divided into blank group, model group, isoliquiritigenin group, paeoniflorin group, combination group, and pirfenidone group, 6 groups in total, 12 rats in each group, and 6 female/group, 6 male/group. The modeling day was set as day 0. From the 29th day, the blank group (normal rats without modeling) and the model group were administered intragastrically with physiological saline (2 ml/rat), the isoliquiritigenin group was administered with isoliquiritigenin (0.55 mg/kg/d), the paeoniflorin group was administered with paeoniflorin (0.55 mg/kg/d), and the combination group was administered with isoliquiritigenin+paeoniflorin (0.55 mg/kg/d), once daily, for 14 days, and the samples were collected at the end of the 42nd day.
Before collecting the sample, the rats were anesthetized and submitted to a tracheotomy, and the tracheal tube was inserted into the rat's trachea and fixed. The FinePointe™ series PFT measurement system was used to detect the rat's forced vital capacity (FVC), forced expiratory volume in 0.3 s (FEV 0.3), vital capacity (VC), and dynamic lung compliance (Cydn).

[5] = tested on: rat pulmonary fibrosis model; assay: Lung tissue pathology, H&E and Masson staining, Szapiel scoring, Example 2; details: for Alveolitis (score): H&E staining; for Alveolitis (score) / Pulmonary fibrosis (score): each 0.55 mg/kg/d, 14 days, X ± SE, N = 6; for Pulmonary fibrosis (score): Masson staining
Experimental: The experimental materials and research methods were the same as those in Example 1. […] The modeling day was set as day 0. […] The left lung was fixed with 10% formaldehyde for 72 hours, embedded in paraffin, sectioned at 4 μm for HE and Masson staining. Pathological scoring of alveolitis and pulmonary fibrosis was performed according to the Szapiel method, the degree of alveolitis was determined by HE staining, and the degree of pulmonary fibrosis was determined by Masson staining. The pathological changes in the lung tissue were observed using an optical microscope. 6 sections were selected from each group and 6 fields were selected from each section.

[6] = tested on: rat pulmonary fibrosis model; assay: Lung function in bleomycin pulmonary fibrosis rats, Example 2; details: for IC: isoliquiritigenin, paeoniflorin, combination each 0.55 mg/kg/d intragastric, day 29-42, X ± SE, N = 10

COc1ccc(-c2oc3c(CC=C(C)C)c(O[C@@H]4O[C@H](CO)[C@@H](O)[C@H](O)[C@H]4O)cc(O)c3c(=O)c2O[C@@H]2O[C@@H](C)[C@H](O)[C@@H](O)[C@H]2O)cc1 [Formula 3, icariin]
Cydn [1]: 0.34 ± 0.05 mL/s
FEV0.3 [1]: 10.46 ± 1.58 mL/s
Total efficacy related indicator R value [2]: 1.76 ± 0.16^∘^
COL I (IOD) (CoL I): 17.80 ± 1.44 IOD
α-SMA (IOD) (α-SMA): 12.03 ± 1.87 IOD
Alveolitis (score) [3]: 0.94 ± 0.39 score
Pulmonary fibrosis (score) [3]: 1.33 ± 0.31 score
alveolitis scores, compared with the model group [3]: significantly reduced

O=C(/C=C/c1ccc(O)cc1)c1ccc(O)cc1O [Formula 4, isoliquiritigenin]
Cydn [1]: 0.30 ± 0.03 mL/s
FEV0.3 [1]: 10.42 ± 1.43 mL/s
FEV0.3, compared with the model group [4]: increased
Cydn [4]: 0.32 ± 0.04 mL/s
FEV0.3 [4]: 11.09 ± 1.01 mL/s
FVC [4]: 11.34 ± 0.78 mL/s
Total efficacy related indicator R value [2]: 1.82 ± 0.11^∘∘
expression of CoL I protein, compared with the model group (CoL I): significantly reduced
COL I (IOD) (CoL I): 15.54 ± 2.59 IOD
Alveolitis (score) [5]: 1.68 ± 0.30 score
Pulmonary fibrosis (score) [5]: 1.74 ± 0.31 score
pulmonary fibrosis score, compared with the model group ([5]; P<0.01, P<0.05): could reduce
IC [6]: 9.03 ± 0.88 mL/s
α-SMA (IOD) (α-SMA): 12.20 ± 0.89 IOD
Alveolitis (score) [3]: 1.72 ± 0.25 score
Pulmonary fibrosis (score) [3]: 1.78 ± 0.33 score

COc1ccc(-c2cc(=O)c3c(OC)c(OC)c(OC)c(OC)c3o2)cc1OC [Formula 5, nobiletin]
Cydn, compared with the model group ([1]; P<0.05): increased
Cydn [1]: 0.35 ± 0.02 mL/s
FEV0.3 [1]: 11.44 ± 1.41 mL/s
Total efficacy related indicator R value [2]: 1.48 ± 0.46
COL I (IOD) (CoL I): 18.40 ± 0.89 IOD
expression of α-SMA protein, compared with the model group (α-SMA): significantly reduced
α-SMA (IOD) (α-SMA): 9.030 ± 0.8 IOD
Alveolitis (score) [3]: 1.39 ± 0.54 score
Pulmonary fibrosis (score) [3]: 1.56 ± 0.49 score

C[C@H]1CC[C@@H]2N(C1)C[C@H]1[C@@H]3C[C@H]4[C@@H](C[C@H](O)[C@H]5C[C@@H](O)CC[C@@]54C)[C@@H]3CC[C@@H]1[C@]2(C)O [Formula 6, peimine]
Cydn [1]: 0.30 ± 0.03 mL/s
FEV0.3 [1]: 12.04 ± 1.36 mL/s
Total efficacy related indicator R value [2]: 1.57 ± 0.29
COL I (IOD) (CoL I): 17.37 ± 0.89 IOD
expression of α-SMA protein, compared with the model group (α-SMA): significantly reduced
α-SMA (IOD) (α-SMA): 9.647 ± 0.8 IOD
Alveolitis (score) [3]: 1.17 ± 0.19 score
Pulmonary fibrosis (score) [3]: 1.39 ± 0.23 score
alveolitis scores, compared with the model group [3]: significantly reduced

Cc1ccc(=O)n(-c2ccccc2)c1 [Pirfenidone]
IC, compared with the model group ([1]; P<0.01, P<0.05): significantly increased
Cydn [1]: 0.33 ± 0.03 mL/s
FEV0.3 [1]: 10.68 ± 0.97 mL/s
FEV0.3, compared with the model group [4]: increased
Cydn [4]: 0.33 ± 0.03 mL/s
FEV0.3 [4]: 13.46 ± 1.04 mL/s
FVC [4]: 12.34 ± 1.11 mL/s
Total efficacy related indicator R value [2]: 1.61 ± 0.32^#^
expression of CoL I protein, compared with the model group (CoL I): significantly reduced
COL I (IOD) (CoL I): 10.41 ± 0.63 IOD
Alveolitis (score) [5]: 1.43 ± 0.28 score
Pulmonary fibrosis (score) [5]: 1.46 ± 0.39 score
alveolitis score, compared with the model group ([5]; P<0.01, P<0.05): significantly reduced
pulmonary fibrosis score, compared with the model group ([5]; P<0.01, P<0.05): significantly reduced
IC, compared with the model group ([6]; P<0.01, P<0.05): increased
IC [6]: 10.77 ± 0.83 mL/s
α-SMA (IOD) (α-SMA): 12.57 ± 1.17 IOD
Alveolitis (score) [3]: 1.33 ± 0.24 score
Pulmonary fibrosis (score) [3]: 1.33 ± 0.37 score
